Source: ChEMBL document CHEMBL4732067, “Synthesis and evaluation of new compounds bearing 3-(4-aminopiperidin-1-yl)methyl magnolol scaffold as anticancer agents for the treatment of non-small cell lung cancer via targeting autophagy” (Eur J Med Chem, 2021)
One block for each compound: values may come before it.

Legend:
NCI-H460 [1] = test: Induction of cell cycle arrest in human NCI-H460 cells assessed as accumulation at G2/M phase at 10 uM incubated for 24 hrs by propidium iodide staining based flow cytometry (reference value: 16.71 %); type: functional
NCI-H460 [2] = test: Induction of apoptosis in human NCI-H460 cells assessed as early apoptotic cells at 2 uM after 48 hrs by Annexin V-FITC/propidium iodide staining based flow cytometric analysis (reference value: 3.980 %); type: functional
[3] = Antitumor activity against mouse C26 cells xenografted in BALB/c mouse assessed as tumor growth inhibition at 50 mg/kg, po administered once daily and measured every two days by caliper method relative to control; type: functional; conditions: 48 h, read-out: TGI
A549 = test: Antiproliferative activity against human A549 cells expressing wild type EGFR assessed as reduction in cell viability after 72 hrs by MTT assay; type: functional, cell-based; conditions: A549, 72 h
NCI-H460 [4] = test: Induction of apoptosis in human NCI-H460 cells assessed as viable cells at 10 uM after 48 hrs by Annexin V-FITC/propidium iodide staining based flow cytometric analysis (reference value: 91.528 %); type: functional; conditions: read-out: Activity
[5] = Metabolic stability in human liver microsomes assessed as half life; type: ADME, Microsome
NCI-H460 [6] = test: Induction of apoptosis in human NCI-H460 cells assessed as late apoptotic cells at 10 uM after 48 hrs by Annexin V-FITC/propidium iodide staining based flow cytometric analysis (reference value: 3.995 %); type: functional
NCI-H1650 = test: Antiproliferative activity against human NCI-H1650 cells expressing EGFR mutant assessed as reduction in cell viability after 72 hrs by MTT assay; type: functional, cell-based; conditions: NCI-H1650, 72 h
NCI-H460 [7] = test: Antitumor activity against human NCI-H460 cells xenografted in nude BABL/c mouse assessed as tumor growth inhibition at 60 mg/kg, po administered once daily and measured every two days by caliper method relative to control; type: functional; conditions: 48 h, read-out: TGI
NCI-H460 [8] = test: Induction of cell cycle arrest in human NCI-H460 cells assessed as accumulation at G0/G1 phase at 5 uM incubated for 24 hrs by propidium iodide staining based flow cytometry (reference value: 53.97 %); type: functional
HCC827 = test: Antiproliferative activity against human HCC827 cells assessed as reduction in cell viability after 72 hrs by MTT assay; type: functional, cell-based; conditions: HCC827, 72 h
NCI-H460 [9] = test: Induction of apoptosis in human NCI-H460 cells assessed as necrotic cells at 5 uM after 48 hrs by Annexin V-FITC/propidium iodide staining based flow cytometric analysis (reference value: 0.498 %); type: functional
NCI-H1975 = test: Antiproliferative activity against human NCI-H1975 cells assessed as reduction in cell viability after 72 hrs by MTT assay; type: functional, cell-based; conditions: NCI-H1975, 72 h
NCI-H460 [10] = test: Induction of cell cycle arrest in human NCI-H460 cells assessed as accumulation at G2/M phase at 5 uM incubated for 24 hrs by propidium iodide staining based flow cytometry (reference value: 16.71 %); type: functional
NCI-H460 [11] = test: Induction of cell cycle arrest in human NCI-H460 cells assessed as accumulation at G0/G1 phase at 10 uM incubated for 24 hrs by propidium iodide staining based flow cytometry (reference value: 53.97 %); type: functional
NCI-H460 [12] = test: Induction of apoptosis in human NCI-H460 cells assessed as necrotic cells at 2 uM after 48 hrs by Annexin V-FITC/propidium iodide staining based flow cytometric analysis (reference value: 0.498 %); type: functional
NCI-H460 [13] = test: Induction of cell cycle arrest in human NCI-H460 cells assessed as accumulation at S phase at 5 uM incubated for 24 hrs by propidium iodide staining based flow cytometry (reference value: 29.32 %); type: functional
NCI-H460 [14] = test: Induction of apoptosis in human NCI-H460 cells assessed as late apoptotic cells at 2 uM after 48 hrs by Annexin V-FITC/propidium iodide staining based flow cytometric analysis (reference value: 3.995 %); type: functional
NCI-H460 [15] = test: Induction of cell cycle arrest in human NCI-H460 cells assessed as accumulation at G0/G1 phase at 1 uM incubated for 24 hrs by propidium iodide staining based flow cytometry (reference value: 53.97 %); type: functional
L929 = test: Cytotoxicity against mouse L929 cells; type: cell-based
NCI-H460 [16] = test: Induction of apoptosis in human NCI-H460 cells assessed as late apoptotic cells at 5 uM after 48 hrs by Annexin V-FITC/propidium iodide staining based flow cytometric analysis (reference value: 3.995 %); type: functional
[17] = Metabolic stability in human liver microsomes assessed as intrinsic clearance per gram protein; type: ADME, Microsome
NCI-H460 [18] = test: Induction of cell cycle arrest in human NCI-H460 cells assessed as accumulation at S phase at 10 uM incubated for 24 hrs by propidium iodide staining based flow cytometry (reference value: 29.32 %); type: functional
NCI-H460 [19] = test: Induction of apoptosis in human NCI-H460 cells assessed as early apoptotic cells at 10 uM after 48 hrs by Annexin V-FITC/propidium iodide staining based flow cytometric analysis (reference value: 3.980 %); type: functional
NCI-H441 = test: Antiproliferative activity against human NCI-H441 cells […] assessed as reduction in cell viability after 72 hrs by MTT assay; type: functional, cell-based; conditions: NCI-H441, 72 h
[20] = Antiproliferative activity against human SPCA1 cells expressing wild type EGFR assessed as reduction in cell viability after 72 hrs by MTT assay; type: functional, cell-based; conditions: SPCA1, 72 h
NCI-H460 [21] = test: Antiproliferative activity against human NCI-H460 cells assessed as reduction in cell viability after 72 hrs by MTT assay; type: functional, cell-based; conditions: NCI-H460, 72 h
NCI-H460 [22] = test: Induction of apoptosis in human NCI-H460 cells assessed as late apoptotic cells at 1 uM after 48 hrs by Annexin V-FITC/propidium iodide staining based flow cytometric analysis (reference value: 3.995 %); type: functional
NCI-H460 [23] = test: Induction of apoptosis in human NCI-H460 cells assessed as early apoptotic cells at 5 uM after 48 hrs by Annexin V-FITC/propidium iodide staining based flow cytometric analysis (reference value: 3.980 %); type: functional
NCI-H460 [24] = test: Induction of apoptosis in human NCI-H460 cells assessed as viable cells at 5 uM after 48 hrs by Annexin V-FITC/propidium iodide staining based flow cytometric analysis (reference value: 91.528 %); type: functional; conditions: read-out: Activity
NCI-H460 [25] = test: Induction of cell cycle arrest in human NCI-H460 cells assessed as accumulation at G2/M phase at 1 uM incubated for 24 hrs by propidium iodide staining based flow cytometry (reference value: 16.71 %); type: functional
NCI-H460 [26] = test: Induction of apoptosis in human NCI-H460 cells assessed as viable cells at 2 uM after 48 hrs by Annexin V-FITC/propidium iodide staining based flow cytometric analysis (reference value: 91.528 %); type: functional; conditions: read-out: Activity
NCI-H460 [27] = test: Induction of cell cycle arrest in human NCI-H460 cells assessed as accumulation at S phase at 1 uM incubated for 24 hrs by propidium iodide staining based flow cytometry (reference value: 29.32 %); type: functional
NCI-H460 [28] = test: Induction of apoptosis in human NCI-H460 cells assessed as viable cells at 1 uM after 48 hrs by Annexin V-FITC/propidium iodide staining based flow cytometric analysis (reference value: 91.528 %); type: functional; conditions: read-out: Activity
NCI-H460 [29] = test: Induction of apoptosis in human NCI-H460 cells assessed as necrotic cells at 10 uM after 48 hrs by Annexin V-FITC/propidium iodide staining based flow cytometric analysis (reference value: 0.498 %); type: functional
NCI-H460 [30] = test: Induction of apoptosis in human NCI-H460 cells assessed as early apoptotic cells at 1 uM after 48 hrs by Annexin V-FITC/propidium iodide staining based flow cytometric analysis (reference value: 3.980 %); type: functional
NCI-H460 [31] = test: Induction of apoptosis in human NCI-H460 cells assessed as necrotic cells at 1 uM after 48 hrs by Annexin V-FITC/propidium iodide staining based flow cytometric analysis (reference value: 0.498 %); type: functional
[32] = Toxicity in nude BALB/c mouse xenografted with C26 cells assessed as abnormalities in lung size and morphology at 50 mg/kg, po administered once daily; type: organism-based; conditions: in vivo
[33] = Toxicity in nude BALB/c mouse xenografted with C26 cells assessed as change in body weight at 50 mg/kg, po administered once daily and measured every two days; type: organism-based; conditions: in vivo
[34] = Toxicity in nude BALB/c mouse xenografted with C26 cells assessed as body weight loss at 60 mg/kg, po administered once daily and measured every two days; type: organism-based; conditions: in vivo
[35] = Toxicity in nude BALB/c mouse xenografted with C26 cells assessed as abnormalities in heart size and morphology at 50 mg/kg, po administered once daily; type: organism-based; conditions: in vivo
[36] = Toxicity in nude BALB/c mouse xenografted with C26 cells assessed as abnormalities in liver size and morphology at 50 mg/kg, po administered once daily; type: organism-based; conditions: in vivo
[37] = Toxicity in nude BALB/c mouse xenografted with C26 cells assessed as abnormalities in kidney size and morphology at 50 mg/kg, po administered once daily; type: organism-based; conditions: in vivo
NCI-H460 [38] = test: Antitumor activity against human NCI-H460 cells xenografted in nude BABL/c mouse assessed as tumor growth inhibition at 10 mg/kg, po administered once daily and measured every two days by caliper method relative to control; type: functional; conditions: 48 h, read-out: TGI

IC50 (A549): 8.31 µM
half-life [5]: 2.1 h
IC50 (NCI-H1650): 6.46 µM
IC50 (HCC827): 10.8 µM
IC50 (NCI-H1975): 8.68 µM
CLint [17]: 11 mL/min/g
IC50 (NCI-H441): 7.12 µM
IC50 (NCI-H460 [21]): 9.25 µM
SMILES: C=CCc1ccc(O)c(-c2cc(CC=C)cc(CN3CCC(N)CC3)c2O)c1
Activity (NCI-H460 [1]): 15.16%
Activity (NCI-H460 [2]): 6.067%
inhibition in vivo at 50 mg/kg [3]: 45.5%
viability at 10 µM (NCI-H460 [4]): 73.4%
Activity (NCI-H460 [6]): 7.246%
inhibition in vivo at 60 mg/kg (NCI-H460 [7]): 45.2%
Activity (NCI-H460 [8]): 58.76%
Activity (NCI-H460 [9]): 0.51%
Activity (NCI-H460 [10]): 18.49%
Activity (NCI-H460 [11]): 65.66%
Activity (NCI-H460 [12]): 1.301%
Activity (NCI-H460 [13]): 22.74%
Activity (NCI-H460 [14]): 5.012%
Activity (NCI-H460 [15]): 55%
IC50 (L929): 0.83 µM
Activity (NCI-H460 [16]): 5.72%
Activity (NCI-H460 [18]): 19.19%
Activity (NCI-H460 [19]): 19.124%
IC50 [20]: 9.66 µM
Activity (NCI-H460 [22]): 4.207%
Activity (NCI-H460 [23]): 6.82%
viability at 5 µM (NCI-H460 [24]): 86.9%
Activity (NCI-H460 [25]): 22.68%
viability at 2 µM (NCI-H460 [26]): 87.6%
Activity (NCI-H460 [27]): 22.32%
viability at 1 µM (NCI-H460 [28]): 88.8%
Activity (NCI-H460 [29]): 0.173%
Activity (NCI-H460 [30]): 6.017%
Activity (NCI-H460 [31]): 0.931%

IC50 (A549): 2 µM
half-life [5]: 0.41 h
IC50 (NCI-H1650): 2.34 µM
IC50 (HCC827): 0.82 µM
IC50 (NCI-H1975): 1.45 µM
CLint [17]: 56.4 mL/min/g
IC50 (NCI-H441): 2.12 µM
IC50 (NCI-H460 [21]): 1.11 µM
SMILES: C=CCc1ccc(OCC)c(-c2cc(CC=C)cc(CN3CCC(NC(=O)[C@@H](N)Cc4ccccc4)CC3)c2O)c1
inhibition in vivo at 50 mg/kg [3]: 57.4%
Activity [32]: Non-Toxic
Activity [33]: Toxic
Activity [34]: Toxic
IC50 (L929): 6.24 µM
Activity [35]: Non-Toxic
IC50 [20]: 1.94 µM
Activity [36]: Non-Toxic
Activity [37]: Non-Toxic

SMILES: CCN(CC)CCCC(C)Nc1ccnc2cc(Cl)ccc12 (stereo not given) [CHLOROQUINE PHOSPHATE]
inhibition in vivo at 10 mg/kg (NCI-H460 [38]): 8.67%
